Experiments:
YAP-TEAD interaction = experiment: SK-HEP-1 reporter assay (8xTEAD responsive elements driving NanoLuc luciferase); assay type: cell-based
How it was run: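 Reporter read-out: NanoLuc luminescence from 8×TEAD elements stably integrated in SK-HEP-1 cells, after 24 h compound exposure at 37° C. Ten concentrations tested in duplicate, top 30 μM final, 0.3% DMSO; IC50 from curve.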

SW620 Yap KO cells = experiment: Viability assay in SW620 Yap KO (Yap independent) cells, CyQuant; assay type: cell-based
How it was run: (§1)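 Seeded cells were dosed 24 h later in duplicate (10-point, 1:3 dilutions, top 30 μM final, 0.3% DMSO) and incubated 96 h at 37 °C. Viability was read with CyQUANT DNA dye after 1 h, fluorescence bottom read. NCI-H226 in RPMI 1640 medium; SW620 YAP/TAZ CRISPR knockout in DMEM/F-12 medium.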

NCI-H226 cells = experiment: Viability assay in NCI-H226 (Yap-dependent) cells, CyQuant; assay type: cell-based, human; settings: Homo sapiens, NCI-H226, 96 h
How it was run: as §1

[1] = Homo sapiens, SK-HEP1, SK-HEP-1 reporter assay, n.d. = value not detectable below threshold given in parentheses, ND = not determinable within the entire range
[2] = Homo sapiens, SW-620, 96 h, n.d. = value not detectable below threshold given in parentheses, ND = not determinable within the entire range
[3] = Homo sapiens, SK-HEP1, SK-HEP-1 reporter assay, class symbols
[4] = Homo sapiens, SW-620, 96 h, n.d. = value not detectable below threshold given in parentheses
[5] = Homo sapiens, SW-620, 96 h, class symbols
[6] = Homo sapiens, SK-HEP1, SK-HEP-1 reporter assay, n.d. = value not detectable below threshold given in parentheses

| IC50 (SW620 Yap KO cells; [2]) | IC50 (NCI-H226 cells; class symbols) | IC50 (YAP-TEAD interaction; [3]) | IC50 (SW620 Yap KO cells; [4]) | SMILES | other results |
| --- | --- | --- | --- | --- | --- |
| > 3200 nM | 1 to 100 nM | 10 to 100 nM |  | Cc1snc2c1c1cc(C(=O)N[C@@H](C)CO)ccc1n2-c1ccc(C(F)(F)F)cc1 [Example C70, N-[(2S)-1-hydroxypropan-2-yl]-3-methyl-8-[4-(trifluoromethyl)phenyl]-8H-[1,2]thiazolo [3,4-b]indole-5-carboxamide] |  |
|  | 1 to 100 nM | 10 to 100 nM | > 3000 nM | Cc1cc(C(CO)NC(=O)c2ccc3c(c2)c2nn(C)nc2n3-c2ccc(C(F)(F)F)cc2)ccn1 (stereo not drawn) [Example C220, N-[2-hydroxy-1-(2-methylpyridin-4-yl)ethyl]-2-methyl-4-[4-(trifluoromethyl)phenyl]-2H,4H-[1,2,3]triazolo[4,5-b]indole-7-carboxamide] |  |
|  | 1 to 100 nM | 100 to 10000 nM | > 3000 nM | C[C@H](NC(=O)c1ccc2c(c1)c1nn(C)nc1n2-c1ccc(C(F)(F)F)cc1)c1cccc(N)n1 [Example C183, N-[(1S)-1-(6-aminopyridin-2-yl)ethyl]-2-methyl-4-[4-(trifluoromethyl)phenyl]-2H,4H-[1,2,3]triazolo[4,5-b]indole-7-carboxamide] |  |
| > 30000 nM | 1 to 100 nM | 10 to 100 nM |  | Cn1nc2c3cc(C(=O)N=S(C)(=O)CCCO)ccc3n(-c3ccc(C(F)(F)F)cc3)c2n1 (stereo not drawn) [Example C25, N-[(3-hydroxypropyl)(methyl)oxo -¿6-sulfanylidene]-2-methyl-4-[4-(trifluoromethyl)phenyl]-2H,4H-[1,2,3]triazolo[4,5-b]indole-7-carboxamide] |  |
|  | 1 to 100 nM | 10 to 100 nM | > 30000 nM | Cn1nc2c3cc(C(=O)N=S4(=O)CCNCC4)ccc3n(-c3ccc(C(F)(F)F)cc3)c2n1 [Example C261, 2-methyl-N-(1-oxo-1lambda6-thiomorpholin-1-ylidene)-4-[4-(trifluoromethyl)phenyl]-2H,4H-[1,2,3]triazolo[4,5-b]indole-7-carboxamide] |  |
|  | 1 to 100 nM | 10 to 100 nM | > 3000 nM | Cn1nc2c3cc(C(=O)NC(CCO)c4ccccn4)ccc3n(-c3ccc(C(F)(F)F)cc3)c2n1 (stereo not drawn) [Example C226, N-[3-hydroxy-1-(pyridin-2-yl)propyl]-2-methyl-4-[4-(trifluoromethyl)phenyl]-2H,4H-[1,2,3]triazolo[4,5-b]indole-7-carboxamide] |  |
|  | 100 to 1000 nM |  |  | Cn1cc2c3cc(C(=O)N=[S@](=O)(CCO)Cc4ccncc4)ccc3n(-c3ccc(C(F)(F)F)cc3)c2n1 (single isomer, unassigned) [Example C253] | IC50 (YAP-TEAD interaction; [6]): > 6500 nM; IC50 (SW620 Yap KO cells; [5]): 1000 to 10000 nM |
| > 30000 nM | 1000 to 10000 nM | 10 to 100 nM |  | O=C(O)c1ccc2c(c1)c1cn(C(F)(F)F)nc1n2-c1ccc(C(F)(F)F)cc1 [Example C35, 2-(trifluoromethyl)-8-[4-(trifluoromethyl)phenyl]-2H,8H-pyrazolo[3,4-b]indole-5-carboxylic acid] |  |
|  | 1 to 100 nM |  |  | CC(NC(=O)c1ccc2c(c1)c1cn(C)nc1n2-c1ccc(C(F)(F)F)cc1)c1ccn[nH]1 (single isomer, unassigned) [Example C75] | IC50 (YAP-TEAD interaction; SK-HEP-1 reporter assay, class symbols): 10 to 100 nM; IC50 (SW620 Yap KO cells; 96 h, n.d. = value not detectable below threshold given in parentheses, ND = not determinable within the entire range): > 30000 nM |
| > 30000 nM | 100 to 1000 nM |  |  | Cn1cc2c3nc(C(=O)N=S(C)(=O)CCCO)ccc3n(-c3ccc(C(F)(F)F)cc3)c2n1 (stereo not drawn) [Example C117, N-[(3-hydroxypropyl)(methyl)oxo- \6-sulfanylidene]-4-methyl-7-[4-(trifluoromethyl)phenyl]-4,5,7,12-tetraazatricyclo[6.4.0.0^2,6∧{2,6}]dodeca-1(8),2,5,9,11-pentaene-11-carboxamide] | IC50 (YAP-TEAD interaction; [1]): > 1000 nM |
| > 30000 nM | 1 to 100 nM | 10 to 100 nM |  | Cn1nc2c3cc(C4CC(Cl)=NO4)ccc3n(-c3ccc(C(F)(F)F)cc3)c2n1 (stereo not drawn) [Example C18, 3-chloro-5-{2-methyl-4-[4-(trifluoromethyl)phenyl]-2H,4H-[1,2,3]triazolo[4,5-b]indol-7-yl}-4,5-dihydro-1,2-oxazole] |  |
| > 3200 nM |  | 1 to 10 nM |  | Cn1cc2c3cc(S(=O)(=O)NC4CC4)ccc3n(-c3ccc(C(F)(F)F)cc3)c2n1 [Example C72, N-cyclopropyl-2-methyl-8-[4-(trifluoromethyl)phenyl]-2H,8H-pyrazolo[3,4-b]indole-5-sulfonamide] | IC50 (NCI-H226 cells; n.d. = value not detectable below threshold given in parentheses): > 3200 nM |
|  | 1 to 100 nM |  | > 3000 nM | Cn1nc2c3cc(C(=O)N=[S@@](=O)(CCCO)Cc4ccncc4)ccc3n(-c3ccc(C(F)(F)F)cc3)c2n1 (single isomer, unassigned) [Example C250] | IC50 (YAP-TEAD interaction; [6]): > 300 nM |
| > 3000 nM | 1 to 100 nM | 10 to 100 nM |  | Cc1snc2c1c1cc(C(=O)N=S(C)(=O)CCO)ccc1n2-c1ccc(C(F)(F)F)cc1 (stereo not drawn) [Example C30, N-[(2-hydroxyethyl)(methyl)oxo-¿6-sulfanylidene]-3-methyl-8-[4-(trifluoromethyl)phenyl]-8H-[1,2]thiazolo[3,4-b]indole-5-carboxamide] |  |

The next lines start with the compound.

| SMILES | IC50 (SW620 Yap KO cells; [2]) | IC50 (NCI-H226 cells; class symbols) | IC50 (YAP-TEAD interaction; [3]) | IC50 (SW620 Yap KO cells; [4]) | other results |
| --- | --- | --- | --- | --- | --- |
| Cn1cc2c3cc(NC(=O)c4ccncc4)ccc3n(-c3ccc(C(F)(F)F)cc3)c2n1 [Example C21, N-{2-methyl-8-[4-(trifluoromethyl)-phenyl]-2H,8H-pyrazolo[3,4-b]indol-5-yl}pyridine-4-carboxamide] | > 3000 nM | 100 to 1000 nM |  |  | IC50 (YAP-TEAD interaction; [1]): > 1000 nM |
| Cn1cc2c3cc(C4CC(Cl)=NO4)ccc3n(-c3ccc(C(F)(F)F)cc3)c2n1 (stereo not drawn) [Example C17, 3-chloro-5-{2-methyl-8-[4-(trifluoromethyl)phenyl]-2H,8H-pyrazolo[3,4-b]indol-5-yl}-4,5-dihydro-1,2-oxazole] | > 30000 nM | 1 to 100 nM | 10 to 100 nM |  |  |
| Cn1nnc2c3cc(-c4noc(=O)[nH]4)ccc3n(-c3ccc(C(F)(F)F)cc3)c21 [Example C3, 3-{2-methyl-4-[4-(trifluoromethyl)phenyl]-3H,4H-[1,2,3]triazolo[4,5-b]indol-7-yl}-4,5-dihydro-1,2,4-oxadiazol-5-one] | > 30000 nM | 100 to 1000 nM | 10 to 100 nM |  |  |
| Cn1nnc2c3cc(C(=O)N=[S@](=O)(CCO)Cc4cccnc4)ccc3n(-c3ccc(C(F)(F)F)cc3)c21 (single isomer, unassigned) [Example C251] |  | 100 to 1000 nM | 10 to 100 nM | > 3000 nM |  |
| Cn1cc2c3cc(N=S(C)(C)=O)ccc3n(-c3ccc(C(F)(F)F)cc3)c2n1 [Example C106, dimethyl({2-methyl-8-[4-(trifluoromethyl)phenyl]-2H,8H-pyrazolo[3,4-b]indol-5-yl}imino)-\6-sulfanone] | > 30000 nM | 100 to 1000 nM | 10 to 100 nM |  |  |
| Cn1cc2c3cc(C(=O)N[C@@H](CO)c4ccccn4)ccc3n(-c3ccc(C(F)(F)F)c(F)c3)c2n1 [Example C169, 8-[3-fluoro-4-(trifluoromethyl)phenyl]-N-[(1R)-2-hydroxy-1-(pyridin-2-yl)ethyl]-2-methyl-2H,8H-pyrazolo[3,4-b]indole-5-carboxamide] |  | 1 to 100 nM | 10 to 100 nM | > 3200 nM |  |
| Cc1snc2c1c1cc(C(=O)NCc3ccncc3)ccc1n2-c1ccc(C(F)(F)F)cc1 [Example C62, 3-methyl-N-[(pyridin-4-yl)methyl]-8-[4-(trifluoromethyl)phenyl]-8H-[1,2]thiazolo[3,4-b]indole-5-carboxamide] | > 3200 nM | 1 to 100 nM | 10 to 100 nM |  |  |
| Cn1cc2c3cc(C(=O)N[C@@H](CO)c4ccccn4)ccc3n(-c3ccc(C(F)(F)F)cn3)c2n1 [Example C150, N-[(1R)-2-hydroxy-1-(pyridin-2-yl)ethyl]-2-methyl-8-[5-(trifluoromethyl)pyridin-2-yl]-2H,8H-pyrazolo[3,4-b]indole-5-carboxamide] |  | 1 to 100 nM | 10 to 100 nM |  | IC50 (SW620 Yap KO cells; [5]): 10000 to 30000 nM |
| C[C@H](CO)NC(=O)c1ccc2c(c1)c1cn(C)nc1n2-c1ccc(C(F)(F)F)c(F)c1 [Example C167, 8-[3-fluoro-4-(trifluoromethyl)phenyl]-N-[(2R)-1-hydroxypropan-2-yl]-2-methyl-2H,8H-pyrazolo[3,4-b]indole-5-carboxamide] |  | 1 to 100 nM | 10 to 100 nM | > 30000 nM |  |
| Cc1snc2c1c1cc(C(=O)N[C@H](CO)C(C)C)ccc1n2-c1ccc(C(F)(F)F)cc1 [Example C88, N-[(2S)-1-hydroxy-3-methylbutan-2-yl]-3-methyl-8-[4-(trifluoromethyl)phenyl]-8H-[1,2]thiazolo[3,4-b]indole-5-carboxamide] | > 3200 nM | 100 to 1000 nM | 10 to 100 nM |  |  |
| Cc1snc2c1c1cc(C(=O)NCc3ccccn3)ccc1n2-c1ccc(C(F)(F)F)cc1 [Example C42, 3-methyl-N-[(pyridin-2-yl)methyl]-8-[4-(trifluoromethyl)phenyl]-8H-[1,2]thiazolo[3,4-b]indole-5-carboxamide] | > 30000 nM | 1 to 100 nM | 10 to 100 nM |  |  |
| Cn1cc2c3cc(C(=O)N=[S@@](=O)(CCCO)Cc4ccncc4)ccc3n(-c3ccc(C(F)(F)F)cc3)c2n1 (single isomer, unassigned) [Example C231] |  | 100 to 1000 nM |  | > 3000 nM | IC50 (YAP-TEAD interaction; [6]): > 300 nM |
